Assay results reported in PubChem BioAssay (NCI).
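These data come from cells grown in 96-well plates and exposed to compound for 48 hours at five concentrations. TGI: concentration producing complete growth inhibition.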

What was measured:
Experiment in all cases: DTP human tumour cell line panel, 48 h
OVCAR-5 ovarian = system: OVCAR-5 ovarian
DMS 114 small cell lung = system: DMS 114 small cell lung
SK-OV-3 ovarian = system: SK-OV-3 ovarian
KM20L2 colon = system: KM20L2 colon
TK-10 renal = system: TK-10 renal
SK-MEL-5 melanoma = system: SK-MEL-5 melanoma
IGROV1 ovarian = system: IGROV1 ovarian
M14 melanoma = system: M14 melanoma
EKVX NSCLC = system: EKVX NSCLC
CCRF-CEM leukemia = system: CCRF-CEM leukemia
DMS 273 small cell lung = system: DMS 273 small cell lung
COLO 205 colon = system: COLO 205 colon
U251 CNS = system: U251 CNS
SNB-19 CNS = system: SNB-19 CNS
XF 498 CNS = system: XF 498 CNS
SF-539 CNS = system: SF-539 CNS
SW-620 colon = system: SW-620 colon
HOP-18 NSCLC = system: HOP-18 NSCLC
HL-60(TB) leukemia = system: HL-60(TB) leukemia
OVCAR-8 ovarian = system: OVCAR-8 ovarian
SK-MEL-2 melanoma = system: SK-MEL-2 melanoma
786-0 renal = system: 786-0 renal
NCI-H23 lung = system: NCI-H23 lung
LXFL 529 NSCLC = system: LXFL 529 NSCLC
HCT-15 colon = system: HCT-15 colon
ACHN renal = system: ACHN renal
A549 NSCLC = system: A549 NSCLC
OVCAR-4 ovarian = system: OVCAR-4 ovarian
CAKI-1 renal = system: CAKI-1 renal
HCC-2998 colon = system: HCC-2998 colon
SF-268 CNS = system: SF-268 CNS
UACC-62 melanoma = system: UACC-62 melanoma
SF-295 CNS = system: SF-295 CNS
M19-MEL melanoma = system: M19-MEL melanoma
HCT-116 colon = system: HCT-116 colon
UO-31 renal = system: UO-31 renal
MOLT-4 leukemia = system: MOLT-4 leukemia
HOP-92 NSCLC = system: HOP-92 NSCLC
RPMI-8226 leukemia = system: RPMI-8226 leukemia
OVCAR-3 ovarian = system: OVCAR-3 ovarian
KM12 colon = system: KM12 colon
SNB-75 CNS = system: SNB-75 CNS
SN12C renal = system: SN12C renal
A498 renal = system: A498 renal
NCI-H460 lung = system: NCI-H460 lung
K-562 leukemia = system: K-562 leukemia
SNB-78 CNS = system: SNB-78 CNS
LOX IMVI melanoma = system: LOX IMVI melanoma
HT29 colon = system: HT29 colon
UACC-257 melanoma = system: UACC-257 melanoma
SK-MEL-28 melanoma = system: SK-MEL-28 melanoma
NCI-H522 lung = system: NCI-H522 lung
HOP-62 NSCLC = system: HOP-62 NSCLC
RXF-631 renal = system: RXF-631 renal
MALME-3M melanoma = system: MALME-3M melanoma
SR leukemia = system: SR leukemia
NCI-H226 lung = system: NCI-H226 lung
RXF 393 renal = system: RXF 393 renal
DLD-1 colon = system: DLD-1 colon

## C[C@]12CC/C(=N\OC(=O)Nc3ccccc3)C=C1CC[C@@H]1C2CC[C@@]2(C)C1CC[C@@H]2OC(=O)Nc1ccccc1 (stereo not given in full)
OVCAR-5 ovarian
  TGI: > 100 µM
DMS 114 small cell lung
  TGI: > 100 µM
SK-OV-3 ovarian
  TGI: > 100 µM
KM20L2 colon
  TGI: > 100 µM
TK-10 renal
  TGI: > 100 µM
SK-MEL-5 melanoma
  TGI: > 100 µM
IGROV1 ovarian
  TGI: > 100 µM
M14 melanoma
  TGI: > 100 µM
EKVX NSCLC
  TGI: > 100 µM
CCRF-CEM leukemia
  TGI: > 100 µM
DMS 273 small cell lung
  TGI: > 100 µM
COLO 205 colon
  TGI: > 100 µM
U251 CNS
  TGI: > 100 µM
SNB-19 CNS
  TGI: > 100 µM
XF 498 CNS
  TGI: 27.3 µM
SF-539 CNS
  TGI: > 100 µM
SW-620 colon
  TGI: > 100 µM
HOP-18 NSCLC
  TGI: > 100 µM
HL-60(TB) leukemia
  TGI: > 100 µM
OVCAR-8 ovarian
  TGI: > 100 µM
SK-MEL-2 melanoma
  TGI: > 100 µM
786-0 renal
  TGI: > 100 µM
NCI-H23 lung
  TGI: > 100 µM
LXFL 529 NSCLC
  TGI: > 100 µM
HCT-15 colon
  TGI: 14.2 µM
ACHN renal
  TGI: > 100 µM
A549 NSCLC
  TGI: > 100 µM
OVCAR-4 ovarian
  TGI: > 100 µM
CAKI-1 renal
  TGI: 19.8 µM
HCC-2998 colon
  TGI: > 100 µM
SF-268 CNS
  TGI: > 100 µM
UACC-62 melanoma
  TGI: > 100 µM
SF-295 CNS
  TGI: > 100 µM
M19-MEL melanoma
  TGI: > 100 µM
HCT-116 colon
  TGI: > 100 µM
UO-31 renal
  TGI: > 100 µM
MOLT-4 leukemia
  TGI: > 100 µM
HOP-92 NSCLC
  TGI: > 100 µM
RPMI-8226 leukemia
  TGI: > 100 µM
OVCAR-3 ovarian
  TGI: > 100 µM
KM12 colon
  TGI: > 100 µM
SNB-75 CNS
  TGI: > 100 µM
SN12C renal
  TGI: 30.8 µM
A498 renal
  TGI: > 100 µM
NCI-H460 lung
  TGI: > 100 µM
K-562 leukemia
  TGI: > 100 µM
SNB-78 CNS
  TGI: > 100 µM
LOX IMVI melanoma
  TGI: > 100 µM
HT29 colon
  TGI: > 100 µM

## COC(=O)C1=C(C)N(NC(=O)c2cccc(Cl)c2)C(C)(O)C12CCOC2=O (stereo not given)
OVCAR-5 ovarian
  TGI: > 100 µM
UACC-257 melanoma
  TGI: > 100 µM
SK-MEL-28 melanoma
  TGI: > 100 µM
DMS 114 small cell lung
  TGI: > 100 µM
NCI-H522 lung
  TGI: > 100 µM
SK-OV-3 ovarian
  TGI: > 100 µM
KM20L2 colon
  TGI: > 100 µM
SK-MEL-5 melanoma
  TGI: > 100 µM
IGROV1 ovarian
  TGI: > 100 µM
M14 melanoma
  TGI: > 100 µM
EKVX NSCLC
  TGI: > 100 µM
DMS 273 small cell lung
  TGI: > 100 µM
U251 CNS
  TGI: > 100 µM
SNB-19 CNS
  TGI: > 100 µM
XF 498 CNS
  TGI: > 100 µM
SF-539 CNS
  TGI: > 100 µM
SW-620 colon
  TGI: > 100 µM
OVCAR-8 ovarian
  TGI: > 100 µM
SK-MEL-2 melanoma
  TGI: > 100 µM
786-0 renal
  TGI: > 100 µM
LXFL 529 NSCLC
  TGI: > 100 µM
HCT-15 colon
  TGI: > 100 µM
ACHN renal
  TGI: > 100 µM
A549 NSCLC
  TGI: > 100 µM
OVCAR-4 ovarian
  TGI: > 100 µM
CAKI-1 renal
  TGI: > 100 µM
HCC-2998 colon
  TGI: > 100 µM
SF-268 CNS
  TGI: > 100 µM
UACC-62 melanoma
  TGI: > 100 µM
SF-295 CNS
  TGI: > 100 µM
M19-MEL melanoma
  TGI: > 100 µM
HCT-116 colon
  TGI: > 100 µM
UO-31 renal
  TGI: > 100 µM
MOLT-4 leukemia
  TGI: > 100 µM
HOP-62 NSCLC
  TGI: > 100 µM
RPMI-8226 leukemia
  TGI: > 100 µM
RXF-631 renal
  TGI: > 100 µM
MALME-3M melanoma
  TGI: > 100 µM
OVCAR-3 ovarian
  TGI: > 100 µM
KM12 colon
  TGI: > 100 µM
SNB-75 CNS
  TGI: > 100 µM
SN12C renal
  TGI: > 100 µM
SR leukemia
  TGI: > 100 µM
NCI-H226 lung
  TGI: > 100 µM
A498 renal
  TGI: > 100 µM
NCI-H460 lung
  TGI: > 100 µM
K-562 leukemia
  TGI: > 100 µM
SNB-78 CNS
  TGI: > 100 µM
LOX IMVI melanoma
  TGI: > 100 µM
HT29 colon
  TGI: > 100 µM

## Clc1ccc2c(Cl)nc(-c3ccccc3)nc2c1
OVCAR-5 ovarian
  TGI: > 100 µM
UACC-257 melanoma
  TGI: > 100 µM
SK-MEL-28 melanoma
  TGI: > 100 µM
DMS 114 small cell lung
  TGI: 74 µM
SK-OV-3 ovarian
  TGI: 62.3 µM
KM20L2 colon
  TGI: 68 µM
TK-10 renal
  TGI: > 100 µM
SK-MEL-5 melanoma
  TGI: 82.4 µM
IGROV1 ovarian
  TGI: > 100 µM
EKVX NSCLC
  TGI: 91.1 µM
CCRF-CEM leukemia
  TGI: > 100 µM
DMS 273 small cell lung
  TGI: > 100 µM
COLO 205 colon
  TGI: > 100 µM
U251 CNS
  TGI: 35.1 µM
SNB-19 CNS
  TGI: > 100 µM
XF 498 CNS
  TGI: 35.6 µM
SW-620 colon
  TGI: > 100 µM
HL-60(TB) leukemia
  TGI: 45.8 µM
RXF 393 renal
  TGI: 71.2 µM
OVCAR-8 ovarian
  TGI: > 100 µM
SK-MEL-2 melanoma
  TGI: 95 µM
NCI-H23 lung
  TGI: 35.9 µM
LXFL 529 NSCLC
  TGI: > 100 µM
ACHN renal
  TGI: > 100 µM
CAKI-1 renal
  TGI: 97.3 µM
HCC-2998 colon
  TGI: > 100 µM
SF-268 CNS
  TGI: > 100 µM
UACC-62 melanoma
  TGI: > 100 µM
SF-295 CNS
  TGI: 90.3 µM
M19-MEL melanoma
  TGI: > 100 µM
HCT-116 colon
  TGI: > 100 µM
UO-31 renal
  TGI: > 100 µM
MOLT-4 leukemia
  TGI: 84.5 µM
HOP-62 NSCLC
  TGI: > 100 µM
RPMI-8226 leukemia
  TGI: 55.3 µM
MALME-3M melanoma
  TGI: > 100 µM
OVCAR-3 ovarian
  TGI: 50.1 µM
DLD-1 colon
  TGI: > 100 µM
KM12 colon
  TGI: > 100 µM
SNB-75 CNS
  TGI: > 100 µM
SN12C renal
  TGI: > 100 µM
SR leukemia
  TGI: > 100 µM
NCI-H226 lung
  TGI: 55.9 µM
A498 renal
  TGI: > 100 µM
NCI-H460 lung
  TGI: > 100 µM
K-562 leukemia
  TGI: > 100 µM
SNB-78 CNS
  TGI: 91 µM
HT29 colon
  TGI: > 100 µM

## C/C=C/C=C\C(=O)C1c2cccc(O)c2C(=O)c2c(O)cc(C)cc21 (stereo not given)
OVCAR-5 ovarian
  TGI: 3.33 µM
UACC-257 melanoma
  TGI: 3.46 µM
SK-MEL-28 melanoma
  TGI: 3.51 µM
DMS 114 small cell lung
  TGI: 1.39 µM
NCI-H522 lung
  TGI: 3.06 µM
SK-OV-3 ovarian
  TGI: 3.08 µM
KM20L2 colon
  TGI: 3.94 µM
TK-10 renal
  TGI: 3.76 µM
SK-MEL-5 melanoma
  TGI: 2.69 µM
IGROV1 ovarian
  TGI: 2.91 µM
EKVX NSCLC
  TGI: 13.4 µM
CCRF-CEM leukemia
  TGI: > 100 µM
DMS 273 small cell lung
  TGI: 3.06 µM
COLO 205 colon
  TGI: 2.99 µM
U251 CNS
  TGI: 1.63 µM
SNB-19 CNS
  TGI: 2.5 µM
XF 498 CNS
  TGI: 0.57 µM
SF-539 CNS
  TGI: 1.52 µM
SW-620 colon
  TGI: 2.55 µM
HOP-18 NSCLC
  TGI: 3.32 µM
HL-60(TB) leukemia
  TGI: 7.04 µM
RXF 393 renal
  TGI: 2.81 µM
OVCAR-8 ovarian
  TGI: 3.19 µM
SK-MEL-2 melanoma
  TGI: 2.2 µM
786-0 renal
  TGI: 3.93 µM
NCI-H23 lung
  TGI: 3.65 µM
HCT-15 colon
  TGI: 3.6 µM
ACHN renal
  TGI: 2.66 µM
A549 NSCLC
  TGI: 2.13 µM
OVCAR-4 ovarian
  TGI: 3.3 µM
CAKI-1 renal
  TGI: 4.34 µM
HCC-2998 colon
  TGI: 1.6 µM
SF-268 CNS
  TGI: 2.05 µM
SF-295 CNS
  TGI: 2.25 µM
M19-MEL melanoma
  TGI: 2.16 µM
HCT-116 colon
  TGI: 2.92 µM
UO-31 renal
  TGI: 3.08 µM
MOLT-4 leukemia
  TGI: 8.19 µM
HOP-92 NSCLC
  TGI: 3.33 µM
HOP-62 NSCLC
  TGI: 4.27 µM
RPMI-8226 leukemia
  TGI: 7.26 µM
MALME-3M melanoma
  TGI: 3.12 µM
OVCAR-3 ovarian
  TGI: 2.2 µM
DLD-1 colon
  TGI: 3.67 µM
KM12 colon
  TGI: 1.51 µM
SNB-75 CNS
  TGI: 2.74 µM
SN12C renal
  TGI: 5.74 µM
NCI-H226 lung
  TGI: 2.57 µM
A498 renal
  TGI: 7.76 µM
NCI-H460 lung
  TGI: 1.47 µM
K-562 leukemia
  TGI: > 100 µM
LOX IMVI melanoma
  TGI: 3.38 µM
HT29 colon
  TGI: 4.21 µM
